From patent US20200268720A1, “METHODS OF USE OF A CLASS IIA HDAC INHIBITOR” (GlaxoSmithKline LLC, priority 2016, published 2020)
Entries after “also recorded” stand apart in the source; their conditions may differ.

Tests used:
[1] = tested on: human breast cancer cell lines (BT20, MCF7, HCC202, T47D, MDA-MB-453 and MDA-MB-436); assay: In vitro cell death assay (CellTiter-Glo), human lines; assay type: cell-based; details: 0, 0.1, 1, 10 μM, 48 hours
Description: The human breast cancer cell lines (BT20, MCF7, HCC202, T47D, MDA-MB-453 and MDA-MB-436) were obtained from ATCC. Prior to use, cell line authentication was performed by either STR profiling at Dana-Farber Cancer Institute or by Fluidigm based fingerprinting with a panel of SNPs at The Broad Institute. Cell lines were tested for mycoplasma with the MycoAlert PLUS Mycoplasma Detection Kit (Lonza LT07) according to manufacturer's instructions. Mouse breast tumor cell lines were established from 4 different MMTV-PyMT tumor bear mice. Mouse breast tumor cell line 7333 was implanted into wild-type littermates and once the tumor formed it was removed and used to generate the tumor cell line “MMTV”. All cells were plated at 1E4 cells/well in a 96 well plate. Cells were treated for 48 hours and CellTiter-Glo was used to assess cell viability.

[2] = tested on: metastatic lesions in the lung; assay: Pulmonary metastasis analysis; assay type: in vivo, mouse
Description: Lungs were removed from animals as described above. […] The number of metastatic foci are determined on sections taken every […] throughout the whole lung^3,33 and quantitation was performed blinded by an animal pathologist.

tumor macrophages = assay: Macrophage phagocytosis and activation in tumors (IHC, immunocytochemistry, flow cytometry); assay type: in vivo, mouse
Description: Tumor cells were acquired from three DMSO and three TMP195 5-day treated autochthonous MMTV-PyMT mice. CD11b^+ cells were purified using the automacs (Miltenyi) automated machine according to manufacturer's protocol. CD11b cells were labeled with a CD11b-biotin antibody (101204, BioLegend) and retrieved with ultrapure biotin beads (Miltenyi 130-105-637). Following purification, CD11b^+ cells were cytospun at 300 rpm for 5 minutes onto slides. Cells were fixed in 4% PFA/Sucrose solution for 5 minutes at RT and stored in 4° C. until ready for use. Upon experimentation, slides were permeablized with 0.03% Triton-X for 10 minutes, followed by three 5 minute rinses with 1× PBS. Samples were blocked with 10% Normal Goat Serum (NGS) in 1×PBS for 1 hour at RT. Next cells were stained for the following antibodies anti-mouse/human CD11b (101201, BioLegend), anti-mouse F4/80 (Bio-Rad, MCA497R), and Alexa Fluor 594 anti-mouse CD326 (Ep-CAM) (118222, BioLegend) at 1:100, 1:50 and 1:25 dilution in 1% NGS/1×PBS respectively overnight at 4° C. The following morning, samples were rinsed three times with 1×PBS for five minutes each, replaced with Alexa Fluor 488 goat anti-rat IgG (405418, BioLegend) at 1:200 dilution in 1% NGS, and incubated for one hour at RT. All samples were counterstained with Dapi (P36930, Life Technologies) at 1:1000 dilution in 1% NGS. Next, the samples were rinsed three times for 5 minutes each with 1×PBS. Slides were dehydrated 2× with 95% ethanol and 1× with 100% ethanol. Coverslips were mounted using Prolong Gold antifade reagent (936930, Life Technologies) and imaged with Leica SP5X: Laser Scanning Confocal microscope at 40× magnification. For analysis immunocytochemistry images were assessed by using a co-localization pipeline. In general, the pipeline identified a primary image (nucleus) and a secondary image (CD11b^+). The overlapped images were identified as a “cell”. To avoid background signal, a minimum threshold was applied for the protein of interest (CD11b, F480 and EPCAM) and only the masked objects that had fell within the given dynamic range were considered CD11b or F480 positive. Finally the overlapped image identified as “cell” was masked with the threshold image of the EPCAM. Objects identified as positive for CD11b and EPCAM or F480 and EPCAM were normalized to the number of CD11b or F480 positive cells per image, and portrayed as an average percentage. A total of 60 individual CD11b+ cells and a total of 100 individual F480^+ cells were analyzed from each treatment group.

tumor vasculature = assay: Tumor vasculature (CD34 IHC, heavy dextran leaky vasculature experiment); assay type: in vivo, mouse
Description: Tumor bearing mice that had been treated for 5 days with vehicle or TMP195 were injected with a heavy molecular weight (250 kDa; Sigma-Aldrich FD250S) dextran labeled with FITC36. After 10 minutes, mice were sacrificed. […] Tumors were removed and placed in a 4% PBS/Paraformaldehyde solution overnight, then embedded in a 20% sucrose solution overnight. Tumors were embedded in an optimum cutting temperature (OCT) solution and stored at −80° C. prior to sectioning and staining. The extent of the heavy dextran that permeated through the vasculature was visualized by immunofluorescence.

MMTV-PyMT tumors = assay: Combination with chemotherapy (Carboplatin, Paclitaxel) in MMTV-PyMT mice; assay type: in vivo, mouse
[3] = TMP195 50 mg/kg IP daily plus PTX 10 mg/kg IV

In the case of `CC(C)(CNC(=O)c1cccc(-c2noc(C(F)(F)F)n2)c1)c1coc(-c2ccccc2)n1` [TMP195, N-(2-methyl-2-(2-phenyloxazol-4-yl)propyl)-3-(5-(trifluoromethyl)-1,2,4-oxadiazol-3-yl)benzamide], the “cell viability, 6 human breast cancer cell lines” value [1] is reported as “not directly cytotoxic; also recorded: does not affect cell viability”, the “metastatic lesions in the lung” value ([2]; initial tumor burden <400 mm^3, 24 days of treatment) is reported as “significant decrease” and the metastatic pulmonary lesions ([2]; tumor burden 200-600 mm^3 at start, 14 days of treatment) is reported as “decrease”. For the same compound, the “apoptotic bodies within tumor macrophages (cleaved caspase 3 IHC)” value (tumor macrophages; 5 days of TMP195) was “appearance of apoptotic bodies”, the “intracellular EPCAM in F480+ and CD11b+ cells (phagocytosed breast tumor cells)” value (tumor macrophages; 5 days of TMP195) was “co-stain as EPCAM^+” and the “cells resembling tingible body macrophages (F480 IHC)” value (tumor macrophages; 5 days of TMP195 vs vehicle) was “marked appearance”. The “proportion of F480+ and CD11b+ cells that express CD40” value (tumor macrophages; 5 days of TMP195 vs vehicle) was “higher proportion”, the “tumor vasculature organization (CD34+ vessel structure)” value (tumor vasculature; 5 days of TMP195 vs DMSO) was “more organized” and the “integrity of the tumor vasculature (retention of IV heavy dextran)” value (tumor vasculature; 5 days of TMP195 vs vehicle) was “significantly improved”. For the same compound, the “tumor burden, combination with Carboplatin” value (MMTV-PyMT tumors; TMP195 50 mg/kg IP daily plus Carboplatin 50 mg/kg IV every 5 days) was “significant reduction in tumor burden compared to either monotherapy”, the “durability of efficacy, combination of TMP195 and PTX” value (MMTV-PyMT tumors; [3]) was “at least 29 days” and the “durability, combination of TMP195 plus PTX (figure legend)” value (MMTV-PyMT tumors; [3]) was “durable for at least one month”. The “tumor burden, combination with Paclitaxel” value (MMTV-PyMT tumors; TMP195 50 mg/kg IP daily plus Paclitaxel 10 mg/kg IV every 5 days) was “significant reduction in tumor burden compared to either monotherapy”.
